Assays:
Details in all cases: 48 h
[1] = system: P12-Ichikawa; test: AUC of viability dose-response curve (% viability x log10 dose units); higher = less sensitive
In short: (§1)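 Library compounds in DMSO were applied for 48 h at 37°C at 11 threefold doses (47 μM to 0.79 nM) to medium-adapted leukemia cells in 1536-well plates holding 500 or 1000 cells/well. Luminescence from CellTiter-Glo One was normalised plate by plate against DMSO and cell-free wells. Area under the curve came from trapezoidal integration of a log-logistic fit, after scaling curves that rose above full viability and discarding those that failed quality control. The fit had four parameters and used log10 doses.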

[2] = system: SEM cells; test: as above
In short: as §1

[3] = system: NOMO1; test: as above
In short: as §1

[4] = system: SEM cells; test: cell viability relative to DMSO control; higher = less cytotoxic
In short: (§2)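 Cells were incubated for 48 h at 37°C before CellTiter-Glo One luminescence was read. The cells were NOMO1 or SEM (500 cells/well) or P12-Ichikawa (1000 cells/well) leukemia cells, adapted for at least four passages in each medium and seeded in 1536-well plates (5 μl). Dosing used library compounds in DMSO applied by pin over 11 threefold points, 47 μM to 0.79 nM. Viability is the per-plate percentage of DMSO wells, with cell-free wells as background.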

[5] = system: NOMO1; test: as above
In short: as §2

[6] = system: P12-Ichikawa; test: as above
In short: as §2

c1ccc(CNc2nc(NCc3ccccc3)c3ccccc3n2)cc1
AUC of viability dose-response curve
Details | [1] | [2] | [3]
HPLM + 10% dialyzed FBS | 473 | 440 | 450
RPMI 5 mM glucose + 10% FBS | 465 | 462 | 466
RPMI 5 mM glucose + 10% dialyzed FBS | 465 | 470 | 463

cell viability [%], HPLM + 10% dialyzed FBS
Details | [4] | [5]
0.000781 µM | 104 | 92.7
0.00234 µM | 116 | 114
0.00702 µM | 117 | 144
0.0211 µM | 125 | 121
0.0632 µM | 130 | 138
0.19 µM | 132 | 134
0.569 µM | 136 | 148
1.71 µM | 127 | 158
5.12 µM | 136 | 132
15.4 µM | 133 | 118
46.1 µM | 32.5 | 5.97

CN1C(=O)c2sccc2N(C)c2nc(Nc3ccc([S+](N)(=O)[O-])cc3)ncc21
AUC of viability dose-response curve
Details | [1] | [2] | [3]
HPLM + 10% dialyzed FBS | 343 | 345 | 379
RPMI 5 mM glucose + 10% FBS | 349 | 348 | 390
RPMI 5 mM glucose + 10% dialyzed FBS | 355 | 348 | 378

cell viability [%]
Details | [4] | [5] | [6]
HPLM + 10% dialyzed FBS, 0.000781 µM | 94.1 | 113 | 91.5
HPLM + 10% dialyzed FBS, 0.00234 µM | 93.2 | 100 | 94
HPLM + 10% dialyzed FBS, 0.00702 µM | 103 | 115 | 95.1
HPLM + 10% dialyzed FBS, 0.0211 µM | 102 | 104 | 102
HPLM + 10% dialyzed FBS, 0.0632 µM | 89.2 | 97 | 101
HPLM + 10% dialyzed FBS, 0.19 µM | 99.6 | 117 | 96.2
HPLM + 10% dialyzed FBS, 0.569 µM | 88.7 | 105 | 92.6
HPLM + 10% dialyzed FBS, 1.71 µM | 67.8 | 73.4 | 75.7
HPLM + 10% dialyzed FBS, 5.12 µM | 21.9 | 60.5 | 11.4
HPLM + 10% dialyzed FBS, 15.4 µM | 9.56 | 28.5 | 5.78
HPLM + 10% dialyzed FBS, 46.1 µM | 3.55 | 8.75 | 5.18
RPMI 5 mM glucose + 10% FBS, 0.000781 µM | – | 97.2 | 96.2
RPMI 5 mM glucose + 10% FBS, 0.00234 µM | – | 93.2 | 96
RPMI 5 mM glucose + 10% FBS, 0.00702 µM | – | 98.4 | 98.3
RPMI 5 mM glucose + 10% FBS, 0.0211 µM | – | 104 | 93.4
RPMI 5 mM glucose + 10% FBS, 0.0632 µM | – | 106 | 99.7
RPMI 5 mM glucose + 10% FBS, 0.19 µM | – | 90.4 | 99.7
RPMI 5 mM glucose + 10% FBS, 0.569 µM | – | 90 | 90
RPMI 5 mM glucose + 10% FBS, 1.71 µM | – | 92.9 | 73.6
RPMI 5 mM glucose + 10% FBS, 5.12 µM | – | 55.3 | 17.2
RPMI 5 mM glucose + 10% FBS, 15.4 µM | – | 36.4 | 13.1
RPMI 5 mM glucose + 10% FBS, 46.1 µM | – | 7.28 | 6.79
RPMI 5 mM glucose + 10% dialyzed FBS, 0.000781 µM | 112 | 97.8 | 98.2
RPMI 5 mM glucose + 10% dialyzed FBS, 0.00234 µM | 101 | 94.7 | 103
RPMI 5 mM glucose + 10% dialyzed FBS, 0.00702 µM | 106 | 109 | 104
RPMI 5 mM glucose + 10% dialyzed FBS, 0.0211 µM | 105 | 99.3 | 99.4
RPMI 5 mM glucose + 10% dialyzed FBS, 0.0632 µM | 95.6 | 99 | 98.2
RPMI 5 mM glucose + 10% dialyzed FBS, 0.19 µM | 91.4 | 95.1 | 88.9
RPMI 5 mM glucose + 10% dialyzed FBS, 0.569 µM | 93.7 | 98.2 | 95.8
RPMI 5 mM glucose + 10% dialyzed FBS, 1.71 µM | 63.6 | 70.8 | 64.9
RPMI 5 mM glucose + 10% dialyzed FBS, 5.12 µM | 14.8 | 53.5 | 23.4
RPMI 5 mM glucose + 10% dialyzed FBS, 15.4 µM | 8.42 | 33.2 | 14.5
RPMI 5 mM glucose + 10% dialyzed FBS, 46.1 µM | 4.39 | 4.45 | 9.34

COc1ccc(F)c(F)c1C(=O)c1cnc(NC2CCN([S+](C)(=O)[O-])CC2)nc1N
AUC of viability dose-response curve
Details | [1] | [2] | [3]
HPLM + 10% dialyzed FBS | 401 | 351 | 367
RPMI 5 mM glucose + 10% FBS | 358 | 344 | 380
RPMI 5 mM glucose + 10% dialyzed FBS | 360 | 381 | 380

cell viability [%]
Details | [4] | [5] | [6]
HPLM + 10% dialyzed FBS, 0.000781 µM | 94.9 | 106 | 111
HPLM + 10% dialyzed FBS, 0.00234 µM | 103 | 135 | 116
HPLM + 10% dialyzed FBS, 0.00702 µM | 109 | 123 | 114
HPLM + 10% dialyzed FBS, 0.0211 µM | 113 | 117 | 115
HPLM + 10% dialyzed FBS, 0.0632 µM | 109 | 119 | 118
HPLM + 10% dialyzed FBS, 0.19 µM | 113 | 124 | 112
HPLM + 10% dialyzed FBS, 0.569 µM | 64.6 | 118 | 87.4
HPLM + 10% dialyzed FBS, 1.71 µM | 79 | 93.6 | 77.6
HPLM + 10% dialyzed FBS, 5.12 µM | 41.6 | 45.6 | 86
HPLM + 10% dialyzed FBS, 15.4 µM | 4.32 | 7.59 | 67.6
HPLM + 10% dialyzed FBS, 46.1 µM | 1.78 | 3.32 | 3.92
RPMI 5 mM glucose + 10% FBS, 0.000781 µM | 115 | 104 | 113
RPMI 5 mM glucose + 10% FBS, 0.00234 µM | 130 | 118 | 114
RPMI 5 mM glucose + 10% FBS, 0.00702 µM | 121 | 103 | 126
RPMI 5 mM glucose + 10% FBS, 0.0211 µM | 130 | 102 | 116
RPMI 5 mM glucose + 10% FBS, 0.0632 µM | 123 | 109 | 116
RPMI 5 mM glucose + 10% FBS, 0.19 µM | 135 | 109 | 117
RPMI 5 mM glucose + 10% FBS, 0.569 µM | 80.4 | 100 | 78.3
RPMI 5 mM glucose + 10% FBS, 1.71 µM | 83.1 | 98.9 | 72.2
RPMI 5 mM glucose + 10% FBS, 5.12 µM | 43.4 | 46.3 | 63.7
RPMI 5 mM glucose + 10% FBS, 15.4 µM | 3.24 | 15.1 | 43.2
RPMI 5 mM glucose + 10% FBS, 46.1 µM | 1.43 | 3.38 | 4.54
RPMI 5 mM glucose + 10% dialyzed FBS, 0.000781 µM | 101 | 105 | 114
RPMI 5 mM glucose + 10% dialyzed FBS, 0.00234 µM | 97.7 | 101 | 121
RPMI 5 mM glucose + 10% dialyzed FBS, 0.00702 µM | 111 | 102 | 116
RPMI 5 mM glucose + 10% dialyzed FBS, 0.0211 µM | 98.2 | 106 | 127
RPMI 5 mM glucose + 10% dialyzed FBS, 0.0632 µM | 99.3 | 107 | 116
RPMI 5 mM glucose + 10% dialyzed FBS, 0.19 µM | 114 | 102 | 113
RPMI 5 mM glucose + 10% dialyzed FBS, 0.569 µM | 77.4 | 83.8 | 86.8
RPMI 5 mM glucose + 10% dialyzed FBS, 1.71 µM | 91.1 | 90 | 78.2
RPMI 5 mM glucose + 10% dialyzed FBS, 5.12 µM | 54.1 | 54.1 | 58.4
RPMI 5 mM glucose + 10% dialyzed FBS, 15.4 µM | 3.36 | 15 | 45.9
RPMI 5 mM glucose + 10% dialyzed FBS, 46.1 µM | 1.73 | 2.57 | 5.54

Nc1nc(F)nc2c1ncn2[C@@H]1O[C@H](COP(=O)(O)O)[C@@H](O)[C@@H]1O
AUC of viability dose-response curve
Details | [1] | [2] | [3]
HPLM + 10% dialyzed FBS | 448 | 353 | 420
RPMI 5 mM glucose + 10% FBS | 460 | 398 | 456
RPMI 5 mM glucose + 10% dialyzed FBS | 454 | 352 | 448

cell viability [%]
Details | [4] | [5] | [6]
HPLM + 10% dialyzed FBS, 0.000781 µM | 107 | 121 | 119
HPLM + 10% dialyzed FBS, 0.00234 µM | 123 | 123 | 120
HPLM + 10% dialyzed FBS, 0.00702 µM | 117 | 135 | 121
HPLM + 10% dialyzed FBS, 0.0211 µM | 113 | 134 | 121
HPLM + 10% dialyzed FBS, 0.0632 µM | 128 | 123 | 130
HPLM + 10% dialyzed FBS, 0.19 µM | 117 | 125 | 124
HPLM + 10% dialyzed FBS, 0.569 µM | 123 | 129 | 120
HPLM + 10% dialyzed FBS, 1.71 µM | 56.3 | 126 | 133
HPLM + 10% dialyzed FBS, 5.12 µM | 35.7 | 109 | 128
HPLM + 10% dialyzed FBS, 15.4 µM | 16.6 | 47.3 | 84.2
HPLM + 10% dialyzed FBS, 46.1 µM | 8.32 | 21 | 52.2
RPMI 5 mM glucose + 10% FBS, 0.000781 µM | 107 | 112 | 122
RPMI 5 mM glucose + 10% FBS, 0.00234 µM | 130 | 112 | 121
RPMI 5 mM glucose + 10% FBS, 0.00702 µM | 116 | 130 | 132
RPMI 5 mM glucose + 10% FBS, 0.0211 µM | 92.1 | 123 | 129
RPMI 5 mM glucose + 10% FBS, 0.0632 µM | 114 | 125 | 122
RPMI 5 mM glucose + 10% FBS, 0.19 µM | 123 | 115 | 142
RPMI 5 mM glucose + 10% FBS, 0.569 µM | 128 | 133 | 126
RPMI 5 mM glucose + 10% FBS, 1.71 µM | 73.1 | 118 | 141
RPMI 5 mM glucose + 10% FBS, 5.12 µM | 93.7 | 117 | 137
RPMI 5 mM glucose + 10% FBS, 15.4 µM | 19.7 | 109 | 110
RPMI 5 mM glucose + 10% FBS, 46.1 µM | 11.1 | 38 | 74.8
RPMI 5 mM glucose + 10% dialyzed FBS, 0.000781 µM | 103 | – | 127
RPMI 5 mM glucose + 10% dialyzed FBS, 0.00234 µM | 126 | – | 123
RPMI 5 mM glucose + 10% dialyzed FBS, 0.00702 µM | 110 | – | 123
RPMI 5 mM glucose + 10% dialyzed FBS, 0.0211 µM | 98.2 | – | 123
RPMI 5 mM glucose + 10% dialyzed FBS, 0.0632 µM | 134 | – | 130
RPMI 5 mM glucose + 10% dialyzed FBS, 0.19 µM | 114 | – | 138
RPMI 5 mM glucose + 10% dialyzed FBS, 0.569 µM | 105 | – | 124
RPMI 5 mM glucose + 10% dialyzed FBS, 1.71 µM | 52.9 | – | 126
RPMI 5 mM glucose + 10% dialyzed FBS, 5.12 µM | 46.3 | – | 129
RPMI 5 mM glucose + 10% dialyzed FBS, 15.4 µM | 18 | – | 99.5
RPMI 5 mM glucose + 10% dialyzed FBS, 46.1 µM | 9.23 | – | 62.1

— the supplement of paper PMC11451515
